This note sets out measurements from US8609347B2, “Biomarkers for prenatal diagnosis of congenital cytomegalovirus” (priority 2007, dated 2013).

What all share (assay type): cell-based, human
For one test, the system named is integrin β6. Nature of the test: Surface expression of integrin αvβ6 by flow cytometry in CMV-infected HUVECs. Conditions: 7 days, SB431542 0.1 to 1 μmol/L, Foscarnet 400 μmol/L, phosphonoacetic acid 100 μg/ml. The method, then: FIG. 20: Induction of integrin αvβ6 expression requires TGF-β signaling and viral DNA replication A: Infected HUVECs were cultured with or without chicken anti-TGF-β polyclonal antibody (20 μg/ml), chicken IgY isotype control antibody (control Ab, 20 μg/ml), the ALK5 kinase inhibitor SB431542 (0.5 μmol/L), or the vehicle DMSO for 7 days, and surface expression of integrin αvβ6 was analyzed by flow cytometric analysis. Typical histograms are shown. Shaded areas represent expression of specific proteins. Lines represent isotype control. Experiments were repeated at least two times. B: Surface expression of integrin αvβ6 was analyzed by flow cytometric analysis at 7 days after infection with or without viral DNA polymerase inhibitors, Foscarnet, and phosphonoacetic acid (PAA). Typical histograms are shown. Shaded areas represent expression of specific proteins. Lines represent isotype control. Experiments were repeated six times. C: Active TGF-β was not produced by infected HUVECs in the presence of viral DNA polymerase inhibitors. Equal numbers of TMLC TGF-β reporter cells and control (cont.) or infected HUVECs were cultured for 16 to 24 hours at 7 days after infection. Relative luciferase activity in cell lysates was defined as the measured activity divided by TMLC baseline activity. Representative data (mean±SE) are from four experiments done in triplicate.
The present example assesses how integrin β6 is induced on CMV infection in HUVECs. It has been reported that TGF-β1 induces de novo synthesis of integrin β6 in normal human keratinocytes (Zambruno et al., J Cell Biol, 129:853-865 (1995)) and strongly up-regulates its expression in primary cultures of human airway epithelial cells (Wang et al., Am J Respir Cell Mol Biol, 15:664-672 (1996)). […] HUVECs were cultured with the filtered conditioned medium for 8 days, and expression of integrin β6 was analyzed. […] It was then determined whether viral late gene expression is required for the up-regulation of integrin β6 in infected cells because the expression was observed only at late times after infection. […]
(In flow cytometry, cells or beads pass a laser one at a time.)

The subject of test [1] is TGF-β1 activation in CMV-infected HUVECs. As to the kind of experiment: TGF-β bioassay: TMLC TGF-β reporter cells co-cultured with CMV-infected HUVECs, luciferase activity. The following applies: 7 days after infection; Foscarnet 400 μmol/L or phosphonoacetic acid 100 μg/ml. The text has this: FIG. 18: Integrin αvβ6-dependent TGF-β1 activation in CMV-infected HUVECs. A: TGF-β1 production by infected HUVECs. Conditioned medium was collected from control (open circles) and infected (filled circles) HUVECs at 1 to 9 days, and TGF-β1 was quantified by enzyme-linked immunosorbent assay. Results are the mean (±SE) of three experiments done in duplicate. Asterisks indicate the amount of TGF-β1 in infected HUVECs as compared with uninfected controls (*P<0.05, **P<0.01). B: Surface expression of TGF-β1 in HUVECs was analyzed by flow cytometry at 3, 7, and 10 days after infection and controls (cont). Typical histograms are shown. Shaded areas represent expression of specific proteins. Lines represent isotype control. Experiments were repeated at least three times. C: Total TGF-β1 was analyzed by flow cytometry using permeabilized cells at 3, 7, and 10 days after infection (inf.) and controls (cont). Left: Typical histograms at 10 days are shown. Shaded areas represent expression of specific proteins. Lines represent isotype control. Right: Results are the mean fluorescence intensity (±SE) of three experiments. Asterisks indicate expression in infected HUVECs as compared with uninfected controls (*P<0.05). D: TGF-β bioassay of active TGF-β produced by infected HUVECs. […] Relative luciferase activity in cell lysates was defined as the measured activity divided by TMLC baseline activity. […]

The test system of the next test is CEACAM1. Nature of the test: CEACAM1 expression by flow cytometry in HUVEC. The following applies: treatment with antioxidants; ratios of mean fluorescence intensity to control cells. The source says: FIG. 6A-D: CEACAM protein increases in CMV-infected HUVEC. (A) (Left panel) Flow cytometric analysis of CEACAM1 surface expression. Typical histograms from control and infected human umbilical vein endothelial cells (HUVEC) are shown. Shaded areas represent expression of specific proteins, and lines represent isotype control. (Middle panel) Graphs represent mean fluorescence intensity (mean±SE). Statistically significant differences are indicated (*p<0.05, **p<0.001). (Right panel) VR1814-infected HUVEC increase intracellular CEACAM1 protein. Permeabilized cells were analyzed by flow cytometry. Shaded areas represent expression of specific proteins; lines represent isotype control. (B) CEACAM1 levels in conditioned medium measured by ELISA. Polyclonal and biotinylated CEACAM1-specific IgG (R&D Systems) were used for coating and detection, respectively. CEACAM1 was quantified with peroxidase-conjugated streptavidin. CEACAM1 concentration increased in conditioned medium from infected HUVEC (1 PFU/cell). Graphs represent mean value±SE (n=4). Statistically significant differences are indicated (*p<0.05). (C) Infected HUVEC and controls were immunostained for CEACAM1 and CMV gB. Please Note: cells without viral proteins express CEACAM1. […] Ratios of the mean fluorescence intensity were obtained with control cells.

The subject of a further test is type IV collagen. Nature of the test: Type IV collagen expression (flow cytometry, immunoblot) in CMV-infected HUVECs. Conditions: infected HUVECs treated for 7 days. Here is the method:
FIG. 22: Increased type IV collagen synthesis by CMV infection was blocked by anti-TGF-β and anti-αvβ6 neutralizing antibodies. A: Surface expression of type IV collagen was analyzed by flow cytometric analysis at 10 days after infection. Typical histograms from control (cont.) and infected (inf.) HUVECs are shown. Shaded areas represent expression of specific proteins. Lines represent isotype control. B: The results represent the mean fluorescence intensity of type IV collagen (mean±SE) from three to seven experiments. Asterisks indicate surface expression in infected HUVECs as compared with uninfected controls (*P<0.01). C: Cell lysates from control (cont.) or infected (inf.) HUVECs at 3, 7, and 10 days after infection were fractionated by 8% SDS-PAGE and blotted on nitrocellulose. Filters were incubated with anti-type IV collagen (Col IV) and anti-actin (loading control) antibodies. D: Surface expression of type IV collagen was analyzed by flow cytometric analysis at 7 days without antibody (untreated) or with anti-TGF-β neutralizing antibody (1D11), function-blocking anti-αvβ6 antibody (3G9), or mouse IgG1 isotype control antibody (control Ab). Relative surface expression as expressed by mean fluorescence intensity was normalized for control HUVECs in the same experiment. Results are the mean (±SE) from three experiments. […]

The subject of another test is fibronectin. As to the kind of experiment: Surface expression of fibronectin in CMV-infected HUVECs. The following applies: late times after infection. The text has this:
TGF-β1 is a potent fibrotic factor responsible for the synthesis of ECM, and profibrotic TGF-β1 responses are induced primarily via ALK5/Smad3 signal transduction in normal fibroblasts (Ishida et al., J Invest Dermatol, 126:1733-1744 (2006)). TGF-β1 also potently promotes the synthesis and deposition of ECM in endothelial cells (Pepper, M. S., Cytokine Growth Factor Rev, 8:21-43 (1997)). […] Therefore, it was investigated in the present example whether CMV-activated TGF-β1 could increase ECM production and whether blocking TGF-β1 activation could prevent the effect. […] To evaluate the effect of inhibition of activation of TGF-β1 on CMV-induced profibrotic response, infected cells were treated with anti-TGF-β (1D11) and anti-αvβ6 (3G9) antibodies for 7 days. […] In addition, surface expression of fibronectin was increased at late times after infection, and was reduced by the ALK5 kinase inhibitor.

The test system of another test is Smad3 phosphorylation. Nature of the test: Smad3 phosphorylation by immunoblot in CMV-infected HUVECs. The following applies: 8-day infected HUVECs; 1D11 40 μg/ml, 3G9 80 μg/ml, SB431542 2.5 μmol/L. Here is the method: FIG. 19: CMV-infected HUVECs induce Smad3 phosphorylation. Cell lysates from control (cont.) or infected (inf.) HUVECs at 3, 7, and 10 days after infection were fractionated by 10% SDS-PAGE and blotted on nitrocellulose. Phosphorylation of Smad3 (pSmad3) and Smad1/5 (pSmad1/5) was analyzed by immunoblotting using phospho-specific Smad3 and Smad1/5/8 (pSmad1/5) antibodies. Equal loading of the gels was confirmed using Smad2/3, Smad1, and Smad5 protein levels. B: Effects of anti-TGF-β antibody, anti-αvβ6 antibody (3G9), and ALK5 kinase inhibitor on Smad3 phosphorylation. […]
Activated TGF-β1 can bind the type I receptors ALK1 and ALK5, which then phosphorylate the transcriptional activators Smad1/5 and Smad2/3, respectively (ten Dijke, P. and Hill, C. S., Trends Biochem Sci, 29:265-273 (2004)). To determine which of these TGF-β1 signaling pathways is activated in CMV-infected HUVECs, Smad1/5 and Smad3 phosphorylation was analyzed by immunoblotting with antibodies specific to Smads and their phosphorylated forms (FIG. 19A). Smad3 phosphorylation was strongly detected in 7- and 10-day-infected cells. […] Phosphorylated Smad1/5 was also weakly detected in the control. […]
(A western blot detects proteins with antibodies after separation by electrophoresis.)

For the molecule `O=C(O)P(=O)(O)O` [Foscarnet], the “induction of integrin β6” value in the test on integrin β6 is reported as “blocked induction of integrin β6”. For the same molecule, the “induction of TMLC luciferase activity (active TGF-β)” value in test [1] is given as “strongly suppressed”. In the case of `OCCS` [β-mercaptoethanol], the CEACAM1 expression entry with CEACAM1 is “reduce CEACAM1 expression”. Take `O[C@H](CS)[C@H](O)CS` (racemic) [DTT, dithiothreitol]: the CEACAM1 expression result in the test on CEACAM1 was “reduce CEACAM1 expression”. With `NC(=O)c1ccc(-c2nc(-c3ccc4c(c3)OCO4)c(-c3ccccn3)[nH]2)cc1` [SB431542], in the test with type IV collagen, the “surface expression of type IV collagen” value was “inhibitory effect”. In addition, in the test with integrin β6, the “induction of integrin β6” value was “nearly abolish it at high concentrations”. Besides, the “surface expression of fibronectin” value in the test with fibronectin is given as “reduced”. Besides, the Smad3 phosphorylation result in the test with Smad3 phosphorylation is given as “prevented Smad3 phosphorylation”. `C[S+](C)[O-]` [DMSO, dimethyl sulfoxide]: the CEACAM1 expression entry with CEACAM1 is given as “reduce CEACAM1 expression”. `O=C(O)CP(=O)(O)O` [phosphonoacetic acid]: in the test with integrin β6, the “induction of integrin β6” value is reported as “blocked induction of integrin β6”. In addition, the “induction of TMLC luciferase activity (active TGF-β)” value in test [1] is “strongly suppressed”.
